Data on 10 molecules can be found in US5580757A, “Cloning and expression of biologically active α-galactosidase A as a fusion protein” (The Mount Sinai School of Medicine of the City University …, priority 1994, dated 1996).

Where two headings read alike, the source gives them in different places. Where only a bound is given, the exact number is not on record here.

Data set [1] deals with α-Gal A-Protein A domain E fusion protein (human; Staphylococcus aureus).
Data set [2] has as its target recombinant human α-galactosidase A secreted by CHO DG5.3 cells (human).
Data set [3] addresses human α-Gal A purified from spleen (Homo sapiens, UniProt P06280). The conditions noted are these: read-out: Km (4-MU-α-D-Gal); cited from earlier work.
For data set [4], the target named is human α-Gal A purified from plasma (Homo sapiens, UniProt P06280). Particulars: read-out: Km (4-MU-α-D-Gal); cited from earlier work.
For data set [5], the system named is CHO cells secreting recombinant α-Gal A. The experiment in a line: Effect of glycosylation inhibitors on the secretion of recombinant α-Gal A. It counts as cell-based, Chinese hamster. The conditions noted are these: recombinant CHO cultures, FIG. 15; concentration not given. From the text:
FIG. 15. Effect of glycosylation inhibitors on the secretion of recombinant α-Gal.

In data set [6] the target is recombinant human α-galactosidase A secreted by CHO DG5.3 cells (human). This is another data set of the same source.
The target of data set [7] is Sambucus nigra agglutinin (Sambucus nigra). The experiment in a line: SNA-Sepharose chromatography of secreted enzyme.
Substrate in data set [8]: Cc1cc(=O)oc2cc(O[C@H]3O[C@H](CO)[C@H](O)[C@H](O)[C@H]3O)ccc12
The experiment in a line: purified protein, by the assay type. Particulars: other: recombinant α-Gal A; artificial substrate; pH 4.6; 37.0 °C.

Broadly, the Km is the substrate concentration at which the rate is half of its maximum.

Regarding Collagenase (enzyme), in data set [1], the % Of Recovered α-Gal A Activity in the IgG column flow-through after collagenase treatment came out at 89%. endoglycosidase F (enzyme): the shift in mobility on SDS-PAGE in data set [2] was 4 kDa. For `Cc1cc(=O)oc2cc(O[C@H]3O[C@H](CO)[C@H](O)[C@H](O)[C@H]3O)ccc12` [4-MU-α-D-galactopyranoside, 4-methylumbelliferyl-α-D-galactopyranoside], the Km is 2.5 mM in data set [3] and 1.9 mM in data set [4]. For tunicamycin, the “inhibition of secretion of α-Gal A” value in data set [5] was not above 80%. Regarding `O[C@H]1[C@H]2[C@H](O)CCCN2C[C@H]1O` [swainsonine], the “α-Gal A secretion rate” value in data set [5] is “remains the same as the controls”. Consider “peptide:N-glycosidase F (from UniProt P21163) (enzyme)”, for which the shift in mobility on SDS-PAGE in data set [6] was 7 kDa. As to “recombinant human α-galactosidase A secreted by CHO DG5.3 cells (enzyme)”, in data set [7], the Percent of Secreted α-Gal A Bound to SNA-Lectin worked out at 5%. In the case of `OC[C@H]1NC[C@@H](O)[C@@H](O)[C@@H]1O` [deoxymannojirimycin], the “α-Gal A secretion rate” value in data set [5] is given as “remains the same as the controls”.

On to `OC[C@H]1NC[C@H](O)[C@@H](O)[C@@H]1O` [deoxynojirimycin], for which, in data set [5], the “α-Gal A secretion rate” value is on record as “remains the same as the controls”.

B1: recombinant human α-galactosidase A (α-Gal A), secreted by CHO DG5.3 cells, purified (Homo sapiens) (protein)
chain: LDNGLARTPTMGWLHWERFMCNLDCQEEPDSCISEKLFMEMAELMVSEGWKDAGYEYLCIDDCWMAPQRDSEGRLQADPQRFPHGIRQLANYVHSKGLKLGIYADVGNKTCAGFPGSFGYYDIDAQTFADWGVDLLKFDGCYCDSLENLADGYKHMSLALNRTGRSIVYSCEWPLYMWPFQKPNYTEIRQYCNHWRNFADIDDSWKSIKSILDWTSFNQERIVDVAGPGGWNDPDMLVIGNFGLSWNQQVTQMALWAIMAAPLFMSNDLRHISPQAKALLQDKDVIAINQDPLGKQGYQLRQGDNFEVWERPLSGLAWAVAMINRQEIGGPRSYTIAVASLGKGVACNPACFITQLLPVKRKLGFYEWTSRLRSHINPTGTVLLQLENTMQMSLKDLL
As to B1, in data set [8], the Km worked out at 1.9 mM.
